Source: patent publication US10457676B2, “Capsazepine analogs for the treatment of cancer and other proliferative diseases” (THE BOARD OF REGENTS OF THE UNIVERSITY OF TEXAS SYSTEM, priority 2014, dated 2019)

Columns and labels:
SCC4 xenografts = experiment: OSCC mouse xenograft model, intra-tumor injection; format: in vivo, athymic nude mice
Description: All studies were approved by the UTHSCSA Institutional Animal Care and Use Committee. Six week-old female athymic nude mice (Harlan, Indianapolis, Ind.) were used in a laminar air-flow cabinet under pathogen-free conditions. They were provided with a 12 h light/dark schedule at controlled temperature and humidity with food and water ad libitum. Mice were acclimated for one week prior to study initiation.
Mice were injected subcutaneously in the right flank with 2×10^6 SCC4 cells in 0.1 mL of sterile PBS. Four weeks post-inoculation, tumors grew to an average volume of 150 mm^3. Mice were stratified into two experimental groups (n=5 per group), which received the following treatments as intra-tumor injections: group A, vehicle control; group B, capsazepine or capsazepine derivative (analog) treatment. Treatments were repeated every other day for a total of 14 days.
Capsazepine and novel capsazepine analogs stock solutions (20 μg/μL, 100% Ethanol) were diluted to 5% Ethanol in sterile saline generating a final concentration of 1 μg/μL. SCC4 xenografts received intra-tumor injections of 40 μg CIDD24 or 40 μg capsazepine every other day (FIG. 4) for two weeks. In a second study SCC4 xenografts were injected with 80 μg CIDD24 or 80 μg CIDD111 every other day for two weeks (FIG. 5). Control xenografts received intra-tumor injections with vehicle control (5% Ethanol in sterile saline). Mice were monitored daily for tumor growth (using digital calipers), cachexia, and weight loss. Body temperature was monitored for 24 h following treatments. Tumor volumes were calculated by the elliptical formula: ½(Length×Width^2) (Jensen, et al., 2008).
Statistical analysis was performed using GraphPad Prism4 (San Diego, Calif.). Experiments were performed in triplicate and results are represented as means±SD except when indicated. Cytotoxicity assays of cell viability were analyzed by one-way ANOVA and Bonferroni's post hoc test (n=4). Statistical analyses of tumor growth were made using analysis of variance with repeated measures with Bonferroni's post hoc test (n=5). A p value less than 0.05 was considered statistically significant.

HSC3 cells = experiment: Cell viability with antioxidant N-acetyl-cysteine (reversal, ROS mechanism); format: cell-based, human; conditions: 10 μM, 24 hours
Description: OSCC cell lines, SCC4, SCC25, and HSC3 were derived from human primary tongue OSCC. SCC4 and SCC25 cells were obtained from ATCC (Rockville, Md.). HSC3 cells were kindly provided by Dr. Brian Schmidt (NYU) (Saghafi, et al., 2011). Breast cancer cells (MDA231), Prostate cancer cells (PC3), and Non-Small Cell Lung Cancer cells (H460) were obtained from ATCC (Rockville, Md.). Cells were maintained in DMEM (Gibco, Carlsbad, Calif.) containing 10% FBS at 37° C. in 5% CO2. Immortalized keratinocytes (OKF6-TERT2; Harvard Medical School Cell Culture Core Collection, Cambridge, Mass.) were used as control epithelial cells.
Cytotoxicity was assessed using the Cell Titer 96® Aqueous Non-Radioactive Cell Proliferation Assay (Promega, Madison, Wis.) according to manufacturer's protocol. Absorbance values of test groups were normalized against controls (n=4).
ROS levels in OSCC cell lines were examined by flow cytometry using 2,7-dichlorodihydrofluorescein diacetate (DCF-DA; Sigma-Aldrich, St. Louis, Mo.). Cells (3×10^5) were plated in 12-well plates and incubated for 30 min with DCF-DA at 37° C. then treated with 30 μM of the appropriate capsazepine derivative or capsazepine using phenol free media with and without 10 mM NAC. Treated cells were incubated for 1 h at 37° C., harvested, washed twice, and analyzed by FACS.

oral cancer tumors = conditions: direct injection into tumors; cited from earlier work
[1] = SCC4 tumors, 40 μg intra-tumor every other day for two weeks, n=5
[2] = SCC4 tumors, 80 μg every other day for two weeks, p<0.001

Structure (SMILES)	reduction in tumor growth compared to vehicle control (SCC4 xenografts; [1]) [%]	reduction in tumor growth compared to vehicle control (SCC4 xenografts; [2])	cell growth inhibition with 10 mM N-acetyl-cysteine added (HSC3 cells)	other results
Oc1cc2c(cc1O)CN(C(=S)NCCc1ccc(Cl)cc1)CC2 [CIDD24, N-[2-(4-chlorophenyl)ethyl]-6,7-dihydroxy-1,2,3,4-tetrahydroisoquinoline-2-carbothioamide]	80	significant reduction in tumor growth	–	tumor volume % change, difference between CIDD 24 and capsazepine (SCC4 xenografts; SCC4 xenografts, 40 μg (1 μg/μl), 10 day period, #=p<0.05): statistically significant difference
O=C(NCCc1ccc(Cl)cc1)N1CCc2cc(O)c(O)cc2C1 [CIDD25, N-[2-(4-chlorophenyl)ethyl]-6,7-dihydroxy-1,2,3,4-tetrahydroisoquinoline-2-carboxamide]	50	–	–	–
Oc1cc2c(cc1O)C(c1ccccc1)N(C(=S)NCc1ccccc1)CC2 (centres unmarked) [CIDD111, N-benzyl-6,7-dihydroxy-1-phenyl-1,2,3,4-tetrahydroisoquinoline-2-carbothioamide]	–	significant reduction in tumor growth	–	efficacy compared with CIDD24 (SCC4 xenografts; SCC4 tumors, 80 μg every other day for two weeks, no significant difference in potency): slightly more effective than CIDD24
Oc1cc2c(cc1O)C(c1ccccc1)N(C(=S)NCCc1ccc(Cl)cc1)CC2 (centres unmarked) [CIDD 99, N-[2-(4-chlorophenyl)ethyl]-6,7-dihydroxy-1-phenyl-1,2,3,4-tetrahydroisoquinoline-2-carbothioamide]	–	–	reversed	–
Oc1cc2c(cc1O)C(c1ccccc1)N(C(=S)NCCc1ccc(Cl)cc1Cl)CC2 (centres unmarked) [CIDD 118, N-[2-(2,4-dichlorophenyl)ethyl]-6,7-dihydroxy-1-phenyl-1,2,3,4-tetrahydroisoquinoline-2-carbothioamide]	–	–	reversed	–
Oc1cc2c(cc1O)CN(C(=S)NCCc1ccc(Cl)cc1)CCC2 [capsazepine]	~50	–	reversed	tumor volume after administration (oral cancer tumors): reduction of tumor volume
